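Protocol summary: plate cells (96-well), add compound at 5 concentrations, incubate 48 h, interpolate endpoints linearly. TGI marks complete inhibition of growth.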
Tests used:
Experiment in all cases: DTP human tumour cell line panel, 48 h
[1] = test system: RXF 393 renal
[2] = test system: MDA-MB-231 breast
[3] = test system: BT-549 breast
[4] = test system: NCI/ADR-RES ovarian
[5] = test system: CCRF-CEM leukemia
[6] = test system: HCT-15 colon
[7] = test system: NCI-H226 lung
[8] = test system: HL-60(TB) leukemia
[9] = test system: SN12C renal
[10] = test system: OVCAR-5 ovarian

| SMILES | TGI [1] | TGI [2] | TGI [3] | TGI [4] | TGI [5] | TGI [6] | TGI [7] | TGI [8] | TGI [9] | TGI [10] |
| --- | --- | --- | --- | --- | --- | --- | --- | --- | --- | --- |
| Cn1c(=O)c2sc3cc4c(cc3c2c2ccccc21)sc1c(=O)n(C)c2ccccc2c14 | 45 µM | 36.8 µM | 46.4 µM | > 100 µM | > 100 µM | > 100 µM | > 100 µM | > 100 µM | > 100 µM | > 100 µM |
| CCC1CCC2c3c([nH]c4ccccc34)C3C(=O)N(c4ccc(OC)cc4)C(=O)C3C2C1 (centres undefined) | > 100 µM | > 100 µM | > 100 µM | > 100 µM | 26.7 µM | > 100 µM | > 100 µM | 75 µM | > 100 µM | – |
| Nc1ccc(-c2nc3ccccc3s2)cc1 | 33.5 µM | 31.9 µM | 28.9 µM | 56.4 µM | 54.4 µM | 40.4 µM | 49 µM | 61.6 µM | 43.5 µM | 36.5 µM |
| Cc1cccc(C(O)c2cccnc2)c1O (centres undefined) | > 100 µM | > 100 µM | > 100 µM | > 100 µM | > 100 µM | > 100 µM | > 100 µM | > 100 µM | > 100 µM | > 100 µM |
| CC1(C)CC(=O)C(=CN2C(=O)CNC2=S)C(=O)C1 | > 100 µM | > 100 µM | > 100 µM | > 100 µM | > 100 µM | > 100 µM | > 100 µM | > 100 µM | > 100 µM | > 100 µM |
| Cc1cccc2c1C(=O)[C@@](C)([C@]1(C)Nc3cccc(C)c3C1=O)N2 | > 100 µM | > 100 µM | > 100 µM | > 100 µM | > 100 µM | > 100 µM | > 100 µM | 7.9 µM | > 100 µM | > 100 µM |
| N#Cc1c(C#N)c(-c2ccccc2)n(/N=C\c2ccccc2)c1N | 70.5 µM | 65.3 µM | > 100 µM | 52.5 µM | 51.2 µM | > 100 µM | 68.7 µM | > 100 µM | > 100 µM | > 100 µM |
| Cc1cc(C)c2c(c1)CC1(Cc3c(C)cc(C)cc3C1=O)C2=O (centres undefined) | > 100 µM | > 100 µM | > 100 µM | > 100 µM | > 100 µM | > 100 µM | > 100 µM | > 100 µM | > 100 µM | > 100 µM |
| O=C(Nc1nc(C23CC4CC(CC(C4)C2)C3)cs1)c1cc2cc([N+](=O)[O-])ccc2oc1=O | 74.8 µM | > 100 µM | 40.4 µM | > 100 µM | > 100 µM | > 100 µM | > 100 µM | > 100 µM | > 100 µM | > 100 µM |
| COc1ccc(C2NC(=O)Nc3c2c(=O)oc2c3ccc3ccccc32)cc1 (centres undefined) | > 100 µM | > 100 µM | > 100 µM | > 100 µM | > 100 µM | > 100 µM | 96.9 µM | > 100 µM | > 100 µM | > 100 µM |
| Cc1ccc2c(=O)c(C(=O)N(CCO)CCO)c[nH]c2n1 | > 100 µM | > 100 µM | > 100 µM | > 100 µM | > 100 µM | > 100 µM | > 100 µM | > 100 µM | > 100 µM | > 100 µM |
| C=C1C(=O)O[C@H]2C/C(C=O)=C\[C@H]3O[C@H]3/C(COC(=O)C(C)C)=C/CC12 (some centres undefined) | 14 µM | 17.3 µM | 24.8 µM | 33.8 µM | 6.63 µM | 9.43 µM | 51.1 µM | 5.54 µM | 7.11 µM | 7.48 µM |
| COC(=O)[C@@H]1O[C@]12[C@@H](CO[Si](C)(C)C(C)(C)C)O[C@@H](n1cc(C)c(=O)[nH]c1=O)[C@@H]2O[Si](C)(C)C(C)(C)C | 22.7 µM | 54.8 µM | 32.6 µM | 33.8 µM | 4.79 µM | 17.3 µM | 45.5 µM | 5.47 µM | 27.9 µM | 36.6 µM |
| COC1=CC(=O)c2c(cc(COP(=O)(N(C)CCBr)N(C)CCBr)n2C)C1=O | 1.95 µM | 15.3 µM | 3.94 µM | 16.7 µM | 19 µM | 2.28 µM | 1.43 µM | > 100 µM | 3.76 µM | 4.35 µM |
| CN(C)C=Nc1nncc2n[nH]nc12 | > 100 µM | > 100 µM | > 100 µM | > 100 µM | > 100 µM | > 100 µM | > 100 µM | > 100 µM | > 100 µM | > 100 µM |
| CCCCCCCCC[n+]1cccc(C2C(C(=O)OCC)=C(C)NC(C)=C2C(=O)OCC)c1 | 5.94 µM | 10.9 µM | 4.51 µM | > 100 µM | 6.85 µM | 32.7 µM | 28.7 µM | 6.25 µM | 17.5 µM | 24.6 µM |
| O=C(NCc1ccccc1)c1c(O)c2ccccc2[nH]c1=O | > 100 µM | > 100 µM | > 100 µM | > 100 µM | > 100 µM | > 100 µM | > 100 µM | > 100 µM | > 100 µM | > 100 µM |

— PubChem BioAssay (NCI)
